Measured values as given in ChEMBL document CHEMBL1201862, “PubChem BioAssay data set” (2004).
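Where inhibition never reached the appropriate level, the endpoint shown equals the highest concentration tested. Otherwise, values were interpolated linearly from a five-concentration, 48-hour dose response in 96-well plates. GI50 is the concentration that inhibits growth by half.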 The source made the active and inactive calls. Rule as the data show it: active = GI50 up to about 1.1 µM and inactive = higher.

Legend:
Experiment in all cases: growth of human tumour cells (NCI), 48 h
UACC-257 = system: UACC-257
IGROV-1 = system: IGROV-1
MOLT-4 = system: MOLT-4
UO-31 = system: UO-31
NCI-H522 = system: NCI-H522
CAKI-1 = system: CAKI-1
A549 = system: A549
HT-29 = system: HT-29
786-0 = system: 786-0
SNB-75 = system: SNB-75
SK-OV-3 = system: SK-OV-3
ACHN = system: ACHN
RPMI-8226 = system: RPMI-8226
MDA-MB-231 = system: MDA-MB-231
SK-MEL-2 = system: SK-MEL-2
BT-549 = system: BT-549
SK-MEL-5 = system: SK-MEL-5
SK-MEL-28 = system: SK-MEL-28
KM12 = system: KM12
Hs-578T = system: Hs-578T

SMILES	GI50 (UACC-257)	GI50 (IGROV-1)	GI50 (MOLT-4)	GI50 (UO-31)	GI50 (NCI-H522)	GI50 (CAKI-1)	GI50 (A549)	GI50 (HT-29)	GI50 (786-0)	GI50 (SNB-75)	GI50 (SK-OV-3)	GI50 (ACHN)	GI50 (RPMI-8226)	GI50 (MDA-MB-231)	GI50 (SK-MEL-2)	GI50 (BT-549)	GI50 (SK-MEL-5)	GI50 (SK-MEL-28)	GI50 (KM12)	GI50 (Hs-578T)
CCCC(=O)Nc1cc(/C=C/C(=O)N2CC(CCl)c3c2cc([N+](=O)[O-])c2ccccc32)n(C)c1 (stereo not given)	> 100 µM (inactive)	> 100 µM (inactive)	3.01 µM (inactive)	> 75.3 µM (inactive)	> 100 µM (inactive)	47.1 µM (inactive)	8.89 µM (inactive)	> 100 µM (inactive)	> 60.8 µM (inactive)	6.12 µM (inactive)	> 100 µM (inactive)	1.32 µM (inactive)	0.579 µM (active)	> 100 µM (inactive)	> 100 µM (inactive)	> 73.3 µM (inactive)	> 47.3 µM (inactive)	> 100 µM (inactive)		
CCC1=NC(N/N=C/c2ccco2)=N/C1=C\c1ccco1	> 100 µM (inactive)	> 100 µM (inactive)	> 100 µM (inactive)	> 100 µM (inactive)	> 100 µM (inactive)	> 100 µM (inactive)	> 100 µM (inactive)	> 100 µM (inactive)	> 100 µM (inactive)		> 100 µM (inactive)	> 100 µM (inactive)	40.9 µM (inactive)	> 100 µM (inactive)	> 100 µM (inactive)	> 100 µM (inactive)	> 100 µM (inactive)	> 100 µM (inactive)	> 100 µM (inactive)	> 100 µM (inactive)
CC1(C)OC2COC(c3n[nH]c4c(=O)[nH]c(=O)[nH]c34)C2O1 (stereo not given)	> 100 µM (inactive)	> 100 µM (inactive)	> 100 µM (inactive)	> 100 µM (inactive)	> 100 µM (inactive)	> 100 µM (inactive)	> 100 µM (inactive)	> 100 µM (inactive)	> 100 µM (inactive)		> 100 µM (inactive)	> 100 µM (inactive)	> 100 µM (inactive)	> 100 µM (inactive)	> 100 µM (inactive)	> 100 µM (inactive)	> 100 µM (inactive)	> 100 µM (inactive)	> 100 µM (inactive)	> 100 µM (inactive)
S=C(c1c[nH]c2ccccc12)N1CCN(Cc2ccccc2)CC1	20.7 µM (inactive)	12.7 µM (inactive)	16.6 µM (inactive)	6.61 µM (inactive)		20.1 µM (inactive)		16.5 µM (inactive)	15.7 µM (inactive)	15.5 µM (inactive)	20.7 µM (inactive)	25.5 µM (inactive)	13 µM (inactive)	17 µM (inactive)	18.9 µM (inactive)	14.7 µM (inactive)	12.1 µM (inactive)	17.3 µM (inactive)	17.2 µM (inactive)	17.4 µM (inactive)
CC(C)(C)C(=O)CC1=Nc2ccccc2SC1(O)CC(=O)C(C)(C)C (stereo not given)	37.1 µM (inactive)	16 µM (inactive)	3.48 µM (inactive)	12.3 µM (inactive)	13 µM (inactive)	14.7 µM (inactive)	20.5 µM (inactive)	17.1 µM (inactive)	23.4 µM (inactive)		13.5 µM (inactive)	23.2 µM (inactive)	8.67 µM (inactive)	17.8 µM (inactive)	13.7 µM (inactive)	15.7 µM (inactive)	18.9 µM (inactive)	22.8 µM (inactive)	20.1 µM (inactive)	20.1 µM (inactive)
Cc1ncc([N+](=O)[O-])n1CCNC(=O)CCCCn1ccnc1[N+](=O)[O-]	> 100 µM (inactive)	> 100 µM (inactive)	> 100 µM (inactive)	> 100 µM (inactive)	> 100 µM (inactive)	> 100 µM (inactive)	> 100 µM (inactive)	> 100 µM (inactive)	> 100 µM (inactive)	97.5 µM (inactive)	> 100 µM (inactive)	> 100 µM (inactive)		> 100 µM (inactive)	> 100 µM (inactive)	> 100 µM (inactive)	> 100 µM (inactive)		> 100 µM (inactive)	> 100 µM (inactive)
CC(C)=CC(C)C(C(O)CCC1(c2ccoc2)OCCO1)S(=O)(=O)c1ccccc1 (stereo not given)	> 100 µM (inactive)	54.5 µM (inactive)		> 100 µM (inactive)	> 100 µM (inactive)	> 100 µM (inactive)	> 100 µM (inactive)		> 100 µM (inactive)	> 100 µM (inactive)	> 100 µM (inactive)	> 100 µM (inactive)	> 100 µM (inactive)	> 100 µM (inactive)	> 100 µM (inactive)	> 100 µM (inactive)	> 100 µM (inactive)	> 100 µM (inactive)	> 100 µM (inactive)	
O=[N+]([O-])/C=C/c1cn(CCCCCCCCCCCCn2cc(/C=C/[N+](=O)[O-])c3ccccc32)c2ccccc12	> 100 µM (inactive)	> 100 µM (inactive)	> 100 µM (inactive)	> 100 µM (inactive)	> 100 µM (inactive)	> 100 µM (inactive)	> 100 µM (inactive)	> 100 µM (inactive)	> 100 µM (inactive)		> 100 µM (inactive)	> 100 µM (inactive)	> 100 µM (inactive)	> 100 µM (inactive)	> 100 µM (inactive)	> 100 µM (inactive)	> 100 µM (inactive)	> 100 µM (inactive)	> 100 µM (inactive)	> 100 µM (inactive)
CC(C)(C)OC(=O)N1C(c2cccnc2)=CC[C@H]2C3CC=C(c4cccnc4)[C@@]3(C)CC[C@@H]21 (stereo not given in full)	3.23 µM (inactive)	4.16 µM (inactive)	2.54 µM (inactive)	4.95 µM (inactive)	2.92 µM (inactive)	6.55 µM (inactive)	3.37 µM (inactive)	3.53 µM (inactive)	4.86 µM (inactive)	5.6 µM (inactive)	4.54 µM (inactive)	3.46 µM (inactive)	1.82 µM (inactive)		2.95 µM (inactive)	4.53 µM (inactive)	2.07 µM (inactive)		4.06 µM (inactive)	5.64 µM (inactive)
Cc1nc2[nH]ccn2c(=O)c1CCO	> 10 µM (inactive)	> 10 µM (inactive)	> 10 µM (inactive)	> 10 µM (inactive)		> 10 µM (inactive)	> 10 µM (inactive)	> 10 µM (inactive)	> 10 µM (inactive)	> 10 µM (inactive)	> 10 µM (inactive)	> 10 µM (inactive)	> 10 µM (inactive)	> 10 µM (inactive)		> 10 µM (inactive)	> 10 µM (inactive)	> 10 µM (inactive)	> 10 µM (inactive)	> 10 µM (inactive)
COc1c(C(C)(C)C)cc(CC2C(=O)C=CC2=O)cc1C(C)(C)C	17.5 µM (inactive)	14.2 µM (inactive)	2.93 µM (inactive)	8.61 µM (inactive)	2.25 µM (inactive)	15.3 µM (inactive)	24.3 µM (inactive)	15.5 µM (inactive)	2.86 µM (inactive)		25.1 µM (inactive)	8.47 µM (inactive)	2.95 µM (inactive)	18.2 µM (inactive)	19 µM (inactive)	23.8 µM (inactive)	17.3 µM (inactive)	16.6 µM (inactive)	17.4 µM (inactive)	27 µM (inactive)
O=C1CC(c2ccccc2)C2(C(=O)NC(=S)NC2=O)C(c2ccccc2)C1 (stereo not given)	> 75 µM (inactive)	> 75 µM (inactive)	27.3 µM (inactive)	> 75 µM (inactive)	> 75 µM (inactive)	> 75 µM (inactive)		> 75 µM (inactive)	> 75 µM (inactive)	> 75 µM (inactive)		> 75 µM (inactive)	38.7 µM (inactive)	> 75 µM (inactive)	> 75 µM (inactive)	> 75 µM (inactive)	> 75 µM (inactive)	> 75 µM (inactive)	> 75 µM (inactive)	
COc1ccc(-c2nc(SCC(=O)NNC(=S)Nc3ccccc3)[nH]c2-c2ccc(OC)cc2)cc1	20.8 µM (inactive)	33.8 µM (inactive)	3.46 µM (inactive)	45.9 µM (inactive)	22.7 µM (inactive)	34.3 µM (inactive)	31.5 µM (inactive)	35.2 µM (inactive)	23.7 µM (inactive)	24.9 µM (inactive)	27.2 µM (inactive)	24.5 µM (inactive)		27.2 µM (inactive)	18.4 µM (inactive)	24 µM (inactive)	14.9 µM (inactive)	24.3 µM (inactive)	24.9 µM (inactive)	
CC(C)(C)CNC(=O)NCn1cc(-c2ccccc2)nn1	> 100 µM (inactive)	> 100 µM (inactive)	> 100 µM (inactive)		> 100 µM (inactive)	> 100 µM (inactive)	> 100 µM (inactive)	> 100 µM (inactive)	> 100 µM (inactive)			> 100 µM (inactive)	> 100 µM (inactive)	> 100 µM (inactive)	> 100 µM (inactive)	> 100 µM (inactive)	> 100 µM (inactive)	> 100 µM (inactive)	> 100 µM (inactive)	
COC(=O)c1cc2c3c(c(C(C)=O)c(OC)c2[nH]1)NCC3	> 50 µM (inactive)	> 50 µM (inactive)	> 50 µM (inactive)	> 50 µM (inactive)		> 50 µM (inactive)		> 50 µM (inactive)	> 50 µM (inactive)	> 50 µM (inactive)	> 50 µM (inactive)	> 50 µM (inactive)	> 50 µM (inactive)	> 50 µM (inactive)	> 50 µM (inactive)	> 50 µM (inactive)	> 50 µM (inactive)		> 50 µM (inactive)	> 50 µM (inactive)
